Source: the NIST ThermoML archive (doi:10.1016/j.jct.2016.06.034)

Experiment: mn = molality of the nth substance listed, in mol/kg
Settings: for electrical conductivity / speed of sound / mass density: 84.5 kPa, Liquid; for electrical conductivity: Alternating current cell with electrodes; for speed of sound: Frequency=3 MHz, Sing-around technique in a fixed-path interferometer; for mass density: Vibrating tube method; for surface tension liquid-gas: platinum plate method

CCCCCCCCCCn1cc[n+](C)c1.[Br-] [1-decyl-3-methylimidazolium bromide] + O
Settings	electrical conductivity [S/m]	mass density [kg/m3]	speed of sound [m/s]	surface tension liquid-gas [mN/m]
288.15 K, m1 = 1e-05	0.000112	–	–	–
288.15 K, m1 = 2e-05	0.000223	–	–	–
288.15 K, m1 = 4e-05	0.000329	–	–	–
288.15 K, m1 = 5e-05	0.000442	–	–	–
288.15 K, m1 = 8e-05	0.000678	–	–	–
288.15 K, m1 = 0.00012	0.00103	–	–	–
288.15 K, m1 = 0.00018	0.00151	–	–	–
288.15 K, m1 = 0.00026	0.00212	–	–	–
288.15 K, m1 = 0.00033	0.00273	–	–	–
288.15 K, m1 = 0.00044	0.00357	–	–	–
288.15 K, m1 = 0.00056	0.00455	–	–	–
288.15 K, m1 = 0.00075	0.006	–	–	–
288.15 K, m1 = 0.00098	0.00777	–	–	–
288.15 K, m1 = 0.00127	0.01	–	–	–
288.15 K, m1 = 0.00152	0.0119	–	–	–
288.15 K, m1 = 0.0021	0.0163	–	–	–
288.15 K, m1 = 0.00279	0.0217	–	–	–
288.15 K, m1 = 0.00349	0.027	–	–	–
288.15 K, m1 = 0.00439	0.0336	–	–	–
288.15 K, m1 = 0.00754	0.0559	–	–	–
288.15 K, m1 = 0.0095	–	999.502	1468.8	–
288.15 K, m1 = 0.01045	0.0758	–	–	–
288.15 K, m1 = 0.01291	0.0921	–	–	–
288.15 K, m1 = 0.01379	–	999.684	1469.8	–
288.15 K, m1 = 0.01562	0.11	–	–	–
288.15 K, m1 = 0.01652	–	999.799	1470.4	–
288.15 K, m1 = 0.01821	0.126	–	–	–
288.15 K, m1 = 0.0208	0.143	–	–	–
288.15 K, m1 = 0.02179	–	1000.02	1471.6	–
288.15 K, m1 = 0.02334	0.158	–	–	–
288.15 K, m1 = 0.0258	0.173	–	–	–
288.15 K, m1 = 0.02615	–	1000.2	1472.5	–
288.15 K, m1 = 0.02825	0.188	–	–	–
288.15 K, m1 = 0.03047	0.2	–	–	–
288.15 K, m1 = 0.03106	–	1000.41	1473.5	–
288.15 K, m1 = 0.03259	0.212	–	–	–
288.15 K, m1 = 0.03338	–	1000.51	1474	–
288.15 K, m1 = 0.03462	0.224	–	–	–
288.15 K, m1 = 0.03662	0.236	–	–	–
288.15 K, m1 = 0.03819	–	1000.71	1475	–
288.15 K, m1 = 0.03965	0.252	–	–	–
288.15 K, m1 = 0.0406	–	1000.81	1475.3	–
288.15 K, m1 = 0.04174	0.262	–	–	–
288.15 K, m1 = 0.04332	–	1000.92	1475.6	–
288.15 K, m1 = 0.04366	0.27	–	–	–
288.15 K, m1 = 0.04517	0.275	–	–	–
288.15 K, m1 = 0.04614	–	1001.03	1476	–
288.15 K, m1 = 0.04687	0.28	–	–	–
288.15 K, m1 = 0.04895	0.285	–	–	–
288.15 K, m1 = 0.05102	0.289	–	–	–
288.15 K, m1 = 0.05341	0.294	–	–	–
288.15 K, m1 = 0.05515	–	1001.35	1476.4	–
288.15 K, m1 = 0.05563	0.298	–	–	–
288.15 K, m1 = 0.05739	0.301	–	–	–
288.15 K, m1 = 0.05949	0.306	–	–	–
288.15 K, m1 = 0.06232	0.311	–	–	–
288.15 K, m1 = 0.06396	–	1001.66	1476.7	–
288.15 K, m1 = 0.07815	–	1002.15	1477	–
288.15 K, m1 = 0.122	–	1003.65	1477.9	–
288.15 K, m1 = 0.1726	–	1005.33	1478.9	–
288.15 K, m1 = 0.2247	–	1007.03	1480	–
288.15 K, m1 = 0.2539	–	1007.95	1480.6	–
293.15 K, m1 = 1e-05	0.00016	–	–	–
293.15 K, m1 = 3e-05	0.000289	–	–	–
293.15 K, m1 = 6e-05	0.000554	–	–	–
293.15 K, m1 = 7e-05	0.000686	–	–	–
293.15 K, m1 = 9e-05	0.00082	–	–	–
293.15 K, m1 = 0.0001	0.000947	–	–	–
293.15 K, m1 = 0.00011	0.00106	–	–	–
293.15 K, m1 = 0.00016	0.00146	–	–	–
293.15 K, m1 = 0.00025	0.00231	–	–	–
293.15 K, m1 = 0.00047	0.00432	–	–	–
293.15 K, m1 = 0.00077	0.00695	–	–	–
293.15 K, m1 = 0.0015	0.0134	–	–	–
293.15 K, m1 = 0.00228	0.0203	–	–	–
293.15 K, m1 = 0.00309	0.0273	–	–	–
293.15 K, m1 = 0.00382	0.0335	–	–	–
293.15 K, m1 = 0.00535	0.0458	–	–	–
293.15 K, m1 = 0.00805	–	–	–	56.25
293.15 K, m1 = 0.00813	0.0678	–	–	–
293.15 K, m1 = 0.0095	–	998.589	1484.6	–
293.15 K, m1 = 0.01113	0.0909	–	–	–
293.15 K, m1 = 0.01202	–	–	–	52.74
293.15 K, m1 = 0.01379	–	998.766	1485.5	–
293.15 K, m1 = 0.01397	0.112	–	–	–
293.15 K, m1 = 0.01627	–	–	–	49.46
293.15 K, m1 = 0.01652	–	998.876	1486.1	–
293.15 K, m1 = 0.01667	0.132	–	–	–
293.15 K, m1 = 0.01935	0.152	–	–	–
293.15 K, m1 = 0.02179	–	999.09	1487.2	–
293.15 K, m1 = 0.02193	0.17	–	–	–
293.15 K, m1 = 0.02206	–	–	–	45.32
293.15 K, m1 = 0.02449	0.187	–	–	–
293.15 K, m1 = 0.02615	–	999.268	1488	–
293.15 K, m1 = 0.02695	0.204	–	–	–
293.15 K, m1 = 0.02718	–	–	–	42.2
293.15 K, m1 = 0.02918	0.219	–	–	–
293.15 K, m1 = 0.03028	–	–	–	40.63
293.15 K, m1 = 0.03106	–	999.467	1489	–
293.15 K, m1 = 0.0311	0.231	–	–	–
293.15 K, m1 = 0.03299	0.243	–	–	–
293.15 K, m1 = 0.03338	–	999.559	1489.4	–
293.15 K, m1 = 0.03499	0.256	–	–	–
293.15 K, m1 = 0.03568	–	–	–	38.17
293.15 K, m1 = 0.03691	0.269	–	–	–
293.15 K, m1 = 0.03819	–	999.755	1490.3	–
293.15 K, m1 = 0.03912	0.282	–	–	–
293.15 K, m1 = 0.03969	–	–	–	37.78
293.15 K, m1 = 0.0406	–	999.853	1490.5	–
293.15 K, m1 = 0.04083	0.292	–	–	–
293.15 K, m1 = 0.04205	–	–	–	37.64
293.15 K, m1 = 0.0425	0.3	–	–	–
293.15 K, m1 = 0.04332	–	999.954	1490.9	–
293.15 K, m1 = 0.04369	0.305	–	–	–
293.15 K, m1 = 0.04444	–	–	–	37.78
293.15 K, m1 = 0.04545	0.311	–	–	–
293.15 K, m1 = 0.04581	–	–	–	37.96
293.15 K, m1 = 0.04614	–	1000.06	1491.1	–
293.15 K, m1 = 0.04751	0.317	–	–	–
293.15 K, m1 = 0.04833	–	–	–	38.56
293.15 K, m1 = 0.04952	0.323	–	–	–
293.15 K, m1 = 0.05149	0.327	–	–	–
293.15 K, m1 = 0.05344	0.332	–	–	–
293.15 K, m1 = 0.05515	–	1000.37	1491.4	–
293.15 K, m1 = 0.05532	0.336	–	–	–
293.15 K, m1 = 0.058	0.342	–	–	–
293.15 K, m1 = 0.05963	0.345	–	–	–
293.15 K, m1 = 0.06141	–	–	–	39.32
293.15 K, m1 = 0.06396	–	1000.67	1491.6	–
293.15 K, m1 = 0.07815	–	1001.15	1491.8	–
293.15 K, m1 = 0.0858	–	–	–	39.48
293.15 K, m1 = 0.122	–	1002.6	1492.4	–
293.15 K, m1 = 0.1481	–	–	–	39.36
293.15 K, m1 = 0.1726	–	1004.24	1493	–
293.15 K, m1 = 0.1979	–	–	–	39.38
293.15 K, m1 = 0.2247	–	1005.89	1493.8	–
293.15 K, m1 = 0.2539	–	1006.79	1494.1	–
298.15 K, m1 = 1e-05	0.000165	–	–	–
298.15 K, m1 = 3e-05	0.00031	–	–	–
298.15 K, m1 = 4e-05	0.000454	–	–	–
298.15 K, m1 = 5e-05	0.000592	–	–	–
298.15 K, m1 = 7e-05	0.000739	–	–	–
298.15 K, m1 = 0.0001	0.00103	–	–	–
298.15 K, m1 = 0.00012	0.00132	–	–	–
298.15 K, m1 = 0.00018	0.00193	–	–	–
298.15 K, m1 = 0.00025	0.00268	–	–	–
298.15 K, m1 = 0.0004	0.00418	–	–	–
298.15 K, m1 = 0.0006	0.00622	–	–	–
298.15 K, m1 = 0.00096	0.00987	–	–	–
298.15 K, m1 = 0.00171	0.0172	–	–	–
298.15 K, m1 = 0.00264	0.0265	–	–	–
298.15 K, m1 = 0.00371	0.0368	–	–	–
298.15 K, m1 = 0.00412	–	–	–	54.68
298.15 K, m1 = 0.00504	0.0494	–	–	–
298.15 K, m1 = 0.00703	0.0685	–	–	–
298.15 K, m1 = 0.00741	–	–	–	50.92
298.15 K, m1 = 0.00984	0.0933	–	–	–
298.15 K, m1 = 0.01142	–	–	–	47.08
298.15 K, m1 = 0.01267	0.117	–	–	–
298.15 K, m1 = 0.01525	0.139	–	–	–
298.15 K, m1 = 0.01559	–	–	–	43.86
298.15 K, m1 = 0.01793	0.16	–	–	–
298.15 K, m1 = 0.01865	–	–	–	42.13
298.15 K, m1 = 0.02048	0.181	–	–	–
298.15 K, m1 = 0.023	0.201	–	–	–
298.15 K, m1 = 0.02466	–	–	–	39.8
298.15 K, m1 = 0.02535	0.219	–	–	–
298.15 K, m1 = 0.02772	0.237	–	–	–
298.15 K, m1 = 0.02893	–	–	–	38.51
298.15 K, m1 = 0.02961	0.251	–	–	–
298.15 K, m1 = 0.03171	0.267	–	–	–
298.15 K, m1 = 0.03351	–	–	–	37.65
298.15 K, m1 = 0.03974	–	–	–	37.31
298.15 K, m1 = 0.04641	–	–	–	37.49
298.15 K, m1 = 0.05292	–	–	–	38.51
298.15 K, m1 = 0.05743	–	–	–	38.59
298.15 K, m1 = 0.06462	–	–	–	38.74
298.15 K, m1 = 0.0747	–	–	–	38.93
298.15 K, m1 = 0.0901	–	–	–	38.82
298.15 K, m1 = 0.1219	–	–	–	38.81
298.15 K, m1 = 0.1645	–	–	–	38.91
